Reference: patent publication US20240309003A1, “HETEROCYCLIC COMPOUNDS AS TRIGGERING RECEPTOR EXPRESSED ON MYELOID CELLS 2 AGONISTS AND METHODS OF USE” (Vigil Neuroscience, Inc., priority 2021, published 2024)

The compounds below were run against T1, human TREM2 (Homo sapiens, UniProt Q9NZC2) (assay: TREM2 agonist potency by cellular phosphorylation of Syk (AlphaLisa) in HEK293T-hTREM2 cells). Details: HEK293 cells expressing human TREM2 and DAP12, Table D.
T1 construct: expressed in transfected cells; host or cells: HEK293T
T1 sequence (Q9NZC2 19-230): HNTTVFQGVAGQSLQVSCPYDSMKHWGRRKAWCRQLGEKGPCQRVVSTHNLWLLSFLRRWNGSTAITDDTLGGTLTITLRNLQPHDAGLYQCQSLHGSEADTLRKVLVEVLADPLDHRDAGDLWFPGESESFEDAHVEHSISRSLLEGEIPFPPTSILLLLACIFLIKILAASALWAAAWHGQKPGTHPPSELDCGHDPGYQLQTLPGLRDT
T1 sequence (O43914 22-113 partner): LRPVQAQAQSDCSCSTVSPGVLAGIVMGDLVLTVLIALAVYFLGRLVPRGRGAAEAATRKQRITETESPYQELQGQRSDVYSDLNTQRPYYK
Assay type: cell-based
Protocol: In Vitro Measurement of Triggering Receptor Expressed on Myeloid Cells 2 Activity Using Cellular Phosphorylation of Spleen Tyrosine Kinase (“Syk”) Assays
Measurement of TREM2 agonist potency was done using a HEK cell line expressing human TREM2 and DAP12 (HEK293T-hTREM2 cells). Binding of small molecules to, and activation of, TREM2 increases the phosphorylation of Syk. The resultant levels of Syk phosphorylation are measured using a commercial AlphaLisa reagent kit. To perform the assay, HEK-hTREM2 cells were plated at 14,000 cells per well in a 384 well plate, in 25 μL of complete growth media and incubated at 37° C., 5% CO2 for 20-24 hours.
Prior to the assay, test compounds were diluted in the 384 well plates in assay buffer and allowed to equilibrate for 30 minutes. Growth media was removed from cell plates by inversion on blotting paper, and 25 μL of test articles in assay buffer was added to cells. Cells were incubated for 45 minutes at room temperature. After 45 minutes, assay buffer was removed and 10 μL of lysis buffer was added. Plates were shaken for 20 minutes at 350 RPM at room temperature. After complete lysis, AlphaLisa reagents were added to the lysate, and fluourescence intensity was measured using a Perkin Elmer Envision plate reader. Intensities were used to generate a standard curve, and % activation was calculated. Curve fitting was performed using Prism v9 software, log(agonist) vs response-variable slope (four parameters), and EC50s were calculated from the curve fit.
This assay may be used to test any of the compounds described herein to assess and characterize a compound's ability to act as an agonist of TREM2.

EC50 | SMILES
< 50 nM | Cc1cc([C@H]2C[C@@H](c3nc(-c4cc(F)c(Cl)c(F)c4)c4nc(C)c(C)nc4n3)CCO2)ccn1 [Example 133, 4-(4-chloro-3,5-difluorophenyl)-6,7-dimethyl-2-((2R,4S)-2-(2-methylpyridin-4-yl)tetrahydro-2H-pyran-4-yl)pteridine]
< 50 nM | [2H]C([2H])([2H])c1nc2nc([C@@H]3CCO[C@H](c4ccnc(C)c4)C3)nc(-c3ccc(Cl)c(F)c3F)c2nc1C([2H])([2H])[2H] [Example 136, 4-(4-chloro-2,3-difluorophenyl)-6,7-bis(methyl-d3)-2-((2S,4R)-2-(2-methylpyridin-4-yl)tetrahydro-2H-pyran-4-yl)pteridine]
< 50 nM | [2H]C([2H])([2H])c1nc2nc([C@H]3CCO[C@@H](c4ccnc(C)c4)C3)nc(-c3ccc(Cl)c(F)c3F)c2nc1C([2H])([2H])[2H] [Example 137, 4-(4-chloro-2,3-difluorophenyl)-6,7-bis(methyl-d3)-2-((2R,4S)-2-(2-methylpyridin-4-yl)tetrahydro-2H-pyran-4-yl)pteridine]
50 to 500 nM | Cc1nc2nc([C@@H]3CCO[C@H](c4cnn(C5CC5)c4)C3)nc(-c3ccc(C(F)(F)F)cc3)c2nc1C [Example 138, 2-((2S,4R)-2-(1-cyclopropyl-1H-pyrazol-4-yl)tetrahydro-2H-pyran-4-yl)-6,7-dimethyl-4-(4-(trifluoromethyl)phenyl)pteridine]
< 50 nM | Cc1nc2nc([C@H]3CCO[C@@H](c4cnn(C5CC5)c4)C3)nc(-c3ccc(C(F)(F)F)cc3)c2nc1C [Example 139]
500 to 3000 nM | Cc1cnc2c(C34CC(C(F)(F)F)(C3)C4)nc([C@H]3C[C@@H](C)O[C@@H](c4cnn(C5CC5)c4)C3)nc2n1 [Example 140, 2-((2R,4S,6R)-2-(1-cyclopropyl-1H-pyrazol-4-yl)-6-methyltetrahydro-2H-pyran-4-yl)-7-methyl-4-(3-(trifluoromethyl)bicyclo[1.1.1]pentan-1-yl)pteridine]
< 50 nM | COc1ccc([C@H]2C[C@@H](c3nc(C45CC(C(F)(F)F)(C4)C5)c4nc(C)c(C)nc4n3)CCO2)cn1 [Example 141, 2-((2R,4S)-2-(6-methoxypyridin-3-yl)tetrahydro-2H-pyran-4-yl)-6,7-dimethyl-4-(3-(trifluoromethyl)bicyclo[1.1.1]pentan-1-yl)pteridine]
50 to 500 nM | COc1ccc([C@@H]2C[C@H](c3nc(C45CC(C(F)(F)F)(C4)C5)c4nc(C)c(C)nc4n3)CCO2)cn1 [Example 142, 2-((2S,4R)-2-(6-methoxypyridin-3-yl)tetrahydro-2H-pyran-4-yl)-6,7-dimethyl-4-(3-(trifluoromethyl)bicyclo[1.1.1]pentan-1-yl)pteridine]
500 to 3000 nM | COc1ncccc1[C@@H]1C[C@H](c2nc(C34CC(C(F)(F)F)(C3)C4)c3nc(C)c(C)nc3n2)CCO1 [Example 143, 2-((2S,4R)-2-(2-methoxypyridin-3-yl)tetrahydro-2H-pyran-4-yl)-6,7-dimethyl-4-(3-(trifluoromethyl)bicyclo[1.1.1]pentan-1-yl)pteridine]
50 to 500 nM | COc1ncccc1[C@H]1C[C@@H](c2nc(C34CC(C(F)(F)F)(C3)C4)c3nc(C)c(C)nc3n2)CCO1 [Example 144, 2-((2R,4S)-2-(2-methoxypyridin-3-yl)tetrahydro-2H-pyran-4-yl)-6,7-dimethyl-4-(3-(trifluoromethyl)bicyclo[1.1.1]pentan-1-yl)pteridine]
500 to 3000 nM | COc1cccc([C@@H]2C[C@H](c3nc(C45CC(C(F)(F)F)(C4)C5)c4nc(C)c(C)nc4n3)CCO2)n1 [Example 145, 2-[ (2S,4R)-2-(6-methoxy-2-pyridyl)tetrahydropyran-4-yl] - 6,7-dimethyl-4-[3-(trifluoromethyl)-1-bicyclo[1.1.1]pentanyl]pteridine]
50 to 500 nM | COc1cccc([C@H]2C[C@@H](c3nc(C45CC(C(F)(F)F)(C4)C5)c4nc(C)c(C)nc4n3)CCO2)n1 [Example 146, 2-[ (2R,4S)-2-(6-methoxy-2-pyridyl)tetrahydropyran-4-yl] - 6,7-dimethyl-4-[3-(trifluoromethyl)-1-bicyclo[1.1.1]pentanyl]pteridine]
50 to 500 nM | Cc1nc2nc([C@@H]3CCO[C@H](c4cnn(C5CCC5)c4)C3)nc(-c3ccc(F)cc3F)c2nc1C [Example 147, 2-((2S,4R)-2-(1-cyclobutyl-1H-pyrazol-4-yl)tetrahydro-2H-pyran-4-yl)-4-(2,4-difluorophenyl)-6,7-dimethylpteridine]
< 50 nM | Cc1nc2nc([C@H]3CCO[C@@H](c4cnn(C5CCC5)c4)C3)nc(-c3ccc(F)cc3F)c2nc1C [Example 148, 2-((2R,4S)-2-(1-cyclobutyl-1H-pyrazol-4-yl)tetrahydro-2H-pyran-4-yl)-4-(2,4-difluorophenyl)-6,7-dimethylpteridine]
500 to 3000 nM | Cc1nc2nc([C@@H]3CCO[C@H](c4cnn(CCF)c4)C3)nc(-c3ccc(F)cc3F)c2nc1C [Example 149, 4-(2,4-difluorophenyl)-2-((2S,4R)-2-(1-(2-fluoroethyl)-1H-pyrazol-4-yl)tetrahydro-2H-pyran-4-yl)-6,7-dimethylpteridine]
< 50 nM | Cc1nc2nc([C@H]3CCO[C@@H](c4cnn(CCF)c4)C3)nc(-c3ccc(F)cc3F)c2nc1C [Example 150, 4-(2,4-difluorophenyl)-2-((2R,4S)-2-(1-(2-fluoroethyl)-1H-pyrazol-4-yl)tetrahydro-2H-pyran-4-yl)-6,7-dimethylpteridine]
500 to 3000 nM | Cc1cnc2c(C34CC(C)(C3)C4)nc([C@H]3C[C@@H](C)O[C@@H](c4cnn(C5CC5)c4)C3)nc2n1 [Example 151, 2-((2R,4S,6R)-2-(1-cyclopropyl-1H-pyrazol-4-yl)-6-methyltetrahydro-2H-pyran-4-yl)-7-methyl-4-(3-methylbicyclo[1.1.1]pentan-1-yl)pteridine]
500 to 3000 nM | Cc1nc2nc([C@@H]3CCO[C@H](c4cnn(C5CC5)c4)C3)nc(-c3cc(F)c(F)cc3F)c2nc1C [Example 152, 2-((2S,4R)-2-(1-cyclopropyl-1H-pyrazol-4-yl)tetrahydro-2H-pyran-4-yl)-6,7-dimethyl-4-(2,4,5-trifluorophenyl)pteridine]
< 50 nM | Cc1nc2nc([C@H]3CCO[C@@H](c4cnn(C5CC5)c4)C3)nc(-c3cc(F)c(F)cc3F)c2nc1C [Example 153, 2-((2R,4S)-2-(1-cyclopropyl-1H-pyrazol-4-yl)tetrahydro-2H-pyran-4-yl)-6,7-dimethyl-4-(2,4,5-trifluorophenyl)pteridine]
50 to 500 nM | Cc1nc2nc([C@@H]3CCO[C@H](c4cnn(C5CC5)n4)C3)nc(-c3ccc(F)cc3F)c2nc1C [Example 154, 2-((2S,4R)-2-(2-cyclopropyl-2H-1,2,3-triazol-4-yl)tetrahydro-2H-pyran-4-yl)-4-(2,4-difluorophenyl)-6,7-dimethylpteridine]
50 to 500 nM | Cc1nc2nc([C@H]3CCO[C@@H](c4cnn(C5CC5)n4)C3)nc(-c3ccc(F)cc3F)c2nc1C [Example 155, 2-((2R,4S)-2-(2-cyclopropyl-2H-1,2,3-triazol-4-yl)tetrahydro-2H-pyran-4-yl)-4-(2,4-difluorophenyl)-6,7-dimethylpteridine]
50 to 500 nM | [2H]C([2H])([2H])n1cc([C@H]2C[C@@H](c3nc(-c4ccc(F)cc4F)c4nc(C)c(C)nc4n3)CCO2)cn1 [Example 156]
< 50 nM | Cc1nc2nc([C@H]3C[C@@H](C)O[C@@H](c4cnn(C5CC5)c4)C3)nc(-c3cc(F)c(F)cc3F)c2nc1C [Example 157, 2-((2R,4S,6R)-2-(1-cyclopropyl-1H-pyrazol-4-yl)-6-methyltetrahydro-2H-pyran-4-yl)-6,7-dimethyl-4-(2,4,5-trifluorophenyl)pteridine]
50 to 500 nM | Cc1nc2nc([C@@H]3C[C@@H](C)O[C@@H](c4cnn(C5CC5)c4)C3)nc(-c3cc(F)c(F)cc3F)c2nc1C [Example 158, 2-((2R,4R,6R)-2-(1-cyclopropyl-1H-pyrazol-4-yl)-6-methyltetrahydro-2H-pyran-4-yl)-6,7-dimethyl-4-(2,4,5-trifluorophenyl)pteridine]
< 50 nM | Cc1nc2nc([C@H]3C[C@@H](C)O[C@@H](c4cnn(C5CC5)c4)C3)nc(-c3ccc(C(F)(F)F)cc3)c2nc1C [Example 159, 2-((2R,4S,6R)-2-(1-cyclopropyl-1H-pyrazol-4-yl)-6-methyltetrahydro-2H-pyran-4-yl)-6,7-dimethyl-4-(4-(trifluoromethyl)phenyl) pteridine]
50 to 500 nM | COc1ncccc1[C@@H]1C[C@H](c2nc(-c3ccc(F)cc3F)c3nc(C)c(C)nc3n2)CCO1 [Example 160, 4-(2,4-difluorophenyl)-2-((2S,4R)-2-(2-methoxypyridin-3-yl)tetrahydro-2H-pyran-4-yl)-6,7-dimethylpteridine]
50 to 500 nM | COc1ncccc1[C@H]1C[C@@H](c2nc(-c3ccc(F)cc3F)c3nc(C)c(C)nc3n2)CCO1 [Example 161, 4-(2,4-difluorophenyl)-2-((2R,4S)-2-(2-methoxypyridin-3-yl)tetrahydro-2H-pyran-4-yl)-6,7-dimethylpteridine]
